2 compounds from BindingDB's records for doi:10.1021/jm00108a008 (University of Minnesota, 1991) can be followed below.

The nature of test [1]: Binding affinity against Opioid receptor delta 1 was measured in the guinea pig brain membranes using [3H]DADLE in the presence of 1 uM unlabeled DAMGO as radioligand.
Test in test [2]: as above
This is another data set of the same source.

The Ki is the equilibrium dissociation constant of an inhibitor or competing ligand from its target. As to `Oc1ccc2c3c1O[C@H]1C4=C(C[C@@]5(O)C(C2)N(CC2CC2)CC[C@]315)C(c1ccccc1)C1=C(O4)[C@@H]2Oc3c(O)ccc4c3[C@@]23CCN(CC2CC2)C(C4)[C@]3(O)C1` (some centres not stated) [bis(4-cyclopropylmethyl-12-oxa-4-azapentacyclo[9.6.1.01,13.05,17.07,18]octadeca-7(18),8,10,14-tetraene-10,17-diol)4-phenyl-4H-pyran], in test [1], the Ki came out at 10 nM.

As to `Oc1ccc2c3c1O[C@H]1c4sc5c(c4C[C@@]4(O)C(C2)N(CC2CC2)CC[C@]314)C[C@@]1(O)C2Cc3ccc(O)c4c3[C@@]1(CCN2CC1CC1)[C@H]5O4` [bis(4-cyclopropylmethyl-12-oxa-4-azapentacyclo[9.6.1.01,13.05,17.07,18]octadeca-7(18),8,10,14-tetraene-10,17-diol)thiphene], the Ki in test [2] amounted to 77 nM.
